{
  "source": "PubChem BioAssay AID1963426",
  "about": "(Molecular Pharmacology Branch, DTP, NCI, 2024);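 note: spheroids exposed to agents for 7 days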;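 for viability, T/C: 100% = DMSO vehicle control wells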",
  "tested_on": "186277-243-T-J2-PDC complex spheroid growth, % test/control",
  "experiment": "Anticancer human tumor 186277-243-T-J2-PDC patient-derived colon adenocarcinoma cell line growth inhibition [Asc]",
  "details": "for IC50: curve of first compound; for viability, T/C: stronger effect = lower value",
  "in_short": "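Complex spheroids combining tumor cells with HUVEC endothelial cells and human MSCs, at 37 degrees C, 5% CO2; agents tested alone or combined, half-log dilutions from at or near clinical Cmax, or 10 microM if Cmax unknown.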",
  "data": [
    {"smiles": "Cc1nc(N2CCC3(CC2)COC(C)C3N)c(CO)nc1Sc1ccnc(N)c1Cl", "note": "(stereo not given) + CCN1C(C(=O)NC23CCC(C(=O)O)(CC2)CC3)C(c2cccc(Cl)c2F)C2(C(=O)Nc3cc(Cl)ccc32)C12CCCCC2", "values": [
      {"measurement": "IC50", "setting": "second compound 0.03 µM", "result": "> 3", "unit": "µM"},
      {"measurement": "IC50", "setting": "second compound 0.0949 µM", "result": "> 3", "unit": "µM"},
      {"measurement": "IC50", "setting": "second compound 0.3 µM", "result": 0.289, "unit": "µM"},
      {"measurement": "IC50", "setting": "second compound 0.949 µM", "result": "< 0.00949", "unit": "µM"},
      {"measurement": "IC50", "setting": "second compound 3 µM", "result": "< 0.00949", "unit": "µM"},
      {"measurement": "viability, T/C", "setting": "second compound 0.03 µM, first compound 0.00949 µM", "result": 122, "unit": "%"},
      {"measurement": "viability, T/C", "setting": "second compound 0.03 µM, first compound 0.03 µM", "result": 127, "unit": "%"},
      {"measurement": "viability, T/C", "setting": "second compound 0.03 µM, first compound 0.0949 µM", "result": 105, "unit": "%"},
      {"measurement": "viability, T/C", "setting": "second compound 0.03 µM, first compound 0.3 µM", "result": 113, "unit": "%"},
      {"measurement": "viability, T/C", "setting": "second compound 0.03 µM, first compound 0.949 µM", "result": 90.9, "unit": "%"},
      {"measurement": "viability, T/C", "setting": "second compound 0.03 µM, first compound 3 µM", "result": 90.7, "unit": "%"},
      {"measurement": "viability, T/C", "setting": "second compound 0.0949 µM, first compound 0.00949 µM", "result": 95.1, "unit": "%"},
      {"measurement": "viability, T/C", "setting": "second compound 0.0949 µM, first compound 0.03 µM", "result": 89.2, "unit": "%"},
      {"measurement": "viability, T/C", "setting": "second compound 0.0949 µM, first compound 0.0949 µM", "result": 84.5, "unit": "%"},
      {"measurement": "viability, T/C", "setting": "second compound 0.0949 µM, first compound 0.3 µM", "result": 84.5, "unit": "%"},
      {"measurement": "viability, T/C", "setting": "second compound 0.0949 µM, first compound 0.949 µM", "result": 71.9, "unit": "%"},
      {"measurement": "viability, T/C", "setting": "second compound 0.0949 µM, first compound 3 µM", "result": 57.8, "unit": "%"},
      {"measurement": "viability, T/C", "setting": "second compound 0.3 µM, first compound 0.00949 µM", "result": 63.2, "unit": "%"},
      {"measurement": "viability, T/C", "setting": "second compound 0.3 µM, first compound 0.03 µM", "result": 67.2, "unit": "%"},
      {"measurement": "viability, T/C", "setting": "second compound 0.3 µM, first compound 0.0949 µM", "result": 57.3, "unit": "%"},
      {"measurement": "viability, T/C", "setting": "second compound 0.3 µM, first compound 0.3 µM", "result": 48.6, "unit": "%"},
      {"measurement": "viability, T/C", "setting": "second compound 0.3 µM, first compound 0.949 µM", "result": 39.6, "unit": "%"},
      {"measurement": "viability, T/C", "setting": "second compound 0.3 µM, first compound 3 µM", "result": 28.3, "unit": "%"},
      {"measurement": "viability, T/C", "setting": "second compound 0.949 µM, first compound 0.00949 µM", "result": 45.9, "unit": "%"},
      {"measurement": "viability, T/C", "setting": "second compound 0.949 µM, first compound 0.03 µM", "result": 43.6, "unit": "%"},
      {"measurement": "viability, T/C", "setting": "second compound 0.949 µM, first compound 0.0949 µM", "result": 40.8, "unit": "%"},
      {"measurement": "viability, T/C", "setting": "second compound 0.949 µM, first compound 0.3 µM", "result": 33.1, "unit": "%"},
      {"measurement": "viability, T/C", "setting": "second compound 0.949 µM, first compound 0.949 µM", "result": 26.1, "unit": "%"},
      {"measurement": "viability, T/C", "setting": "second compound 0.949 µM, first compound 3 µM", "result": 19.1, "unit": "%"},
      {"measurement": "viability, T/C", "setting": "second compound 3 µM, first compound 0.00949 µM", "result": 26.8, "unit": "%"},
      {"measurement": "viability, T/C", "setting": "second compound 3 µM, first compound 0.03 µM", "result": 27.6, "unit": "%"},
      {"measurement": "viability, T/C", "setting": "second compound 3 µM, first compound 0.0949 µM", "result": 22.1, "unit": "%"},
      {"measurement": "viability, T/C", "setting": "second compound 3 µM, first compound 0.3 µM", "result": 19.4, "unit": "%"},
      {"measurement": "viability, T/C", "setting": "second compound 3 µM, first compound 0.949 µM", "result": 11.4, "unit": "%"},
      {"measurement": "viability, T/C", "setting": "second compound 3 µM, first compound 3 µM", "result": 9.13, "unit": "%"}
    ]},
    {"smiles": "O=C(c1cc(Cc2n[nH]c(=O)c3ccccc23)ccc1F)N1CCN(C(=O)C2CC2)CC1", "note": "+ CNC(C)C(=O)NC1CN(S(=O)(=O)c2cccc(S(=O)(=O)N3CCC4CCC(C(=O)NC(c5ccccc5)c5ccccc5)N4C(=O)C(NC(=O)C(C)NC)C3)c2)CCC2CCC(C(=O)NC(c3ccccc3)c3ccccc3)N2C1=O", "values": [
      {"measurement": "IC50", "setting": "second compound 0.01 µM", "result": "> 10", "unit": "µM"},
      {"measurement": "IC50", "setting": "second compound 0.0316 µM", "result": "> 10", "unit": "µM"},
      {"measurement": "IC50", "setting": "second compound 0.1 µM", "result": "> 10", "unit": "µM"},
      {"measurement": "IC50", "setting": "second compound 0.316 µM", "result": "> 10", "unit": "µM"},
      {"measurement": "IC50", "setting": "second compound 1 µM", "result": "> 10", "unit": "µM"},
      {"measurement": "viability, T/C", "setting": "second compound 0.01 µM, first compound 0.0316 µM", "result": 95.4, "unit": "%"},
      {"measurement": "viability, T/C", "setting": "second compound 0.01 µM, first compound 0.1 µM", "result": 116, "unit": "%"},
      {"measurement": "viability, T/C", "setting": "second compound 0.01 µM, first compound 0.316 µM", "result": 111, "unit": "%"},
      {"measurement": "viability, T/C", "setting": "second compound 0.01 µM, first compound 1 µM", "result": 120, "unit": "%"},
      {"measurement": "viability, T/C", "setting": "second compound 0.01 µM, first compound 3.16 µM", "result": 121, "unit": "%"},
      {"measurement": "viability, T/C", "setting": "second compound 0.01 µM, first compound 10 µM", "result": 147, "unit": "%"},
      {"measurement": "viability, T/C", "setting": "second compound 0.0316 µM, first compound 0.0316 µM", "result": 114, "unit": "%"},
      {"measurement": "viability, T/C", "setting": "second compound 0.0316 µM, first compound 0.1 µM", "result": 102, "unit": "%"},
      {"measurement": "viability, T/C", "setting": "second compound 0.0316 µM, first compound 0.316 µM", "result": 99.1, "unit": "%"},
      {"measurement": "viability, T/C", "setting": "second compound 0.0316 µM, first compound 1 µM", "result": 114, "unit": "%"},
      {"measurement": "viability, T/C", "setting": "second compound 0.0316 µM, first compound 3.16 µM", "result": 123, "unit": "%"},
      {"measurement": "viability, T/C", "setting": "second compound 0.0316 µM, first compound 10 µM", "result": 156, "unit": "%"},
      {"measurement": "viability, T/C", "setting": "second compound 0.1 µM, first compound 0.0316 µM", "result": 111, "unit": "%"},
      {"measurement": "viability, T/C", "setting": "second compound 0.1 µM, first compound 0.1 µM", "result": 112, "unit": "%"},
      {"measurement": "viability, T/C", "setting": "second compound 0.1 µM, first compound 0.316 µM", "result": 114, "unit": "%"},
      {"measurement": "viability, T/C", "setting": "second compound 0.1 µM, first compound 1 µM", "result": 123, "unit": "%"},
      {"measurement": "viability, T/C", "setting": "second compound 0.1 µM, first compound 3.16 µM", "result": 129, "unit": "%"},
      {"measurement": "viability, T/C", "setting": "second compound 0.1 µM, first compound 10 µM", "result": 149, "unit": "%"},
      {"measurement": "viability, T/C", "setting": "second compound 0.316 µM, first compound 0.0316 µM", "result": 98.2, "unit": "%"},
      {"measurement": "viability, T/C", "setting": "second compound 0.316 µM, first compound 0.1 µM", "result": 104, "unit": "%"},
      {"measurement": "viability, T/C", "setting": "second compound 0.316 µM, first compound 0.316 µM", "result": 104, "unit": "%"},
      {"measurement": "viability, T/C", "setting": "second compound 0.316 µM, first compound 1 µM", "result": 117, "unit": "%"},
      {"measurement": "viability, T/C", "setting": "second compound 0.316 µM, first compound 3.16 µM", "result": 142, "unit": "%"},
      {"measurement": "viability, T/C", "setting": "second compound 0.316 µM, first compound 10 µM", "result": 148, "unit": "%"},
      {"measurement": "viability, T/C", "setting": "second compound 1 µM, first compound 0.0316 µM", "result": 99.3, "unit": "%"},
      {"measurement": "viability, T/C", "setting": "second compound 1 µM, first compound 0.1 µM", "result": 111, "unit": "%"},
      {"measurement": "viability, T/C", "setting": "second compound 1 µM, first compound 0.316 µM", "result": 106, "unit": "%"},
      {"measurement": "viability, T/C", "setting": "second compound 1 µM, first compound 1 µM", "result": 114, "unit": "%"},
      {"measurement": "viability, T/C", "setting": "second compound 1 µM, first compound 3.16 µM", "result": 125, "unit": "%"},
      {"measurement": "viability, T/C", "setting": "second compound 1 µM, first compound 10 µM", "result": 159, "unit": "%"}
    ]}
  ]
}
